Toxic doses and inconclusive results are not listed. How the source made its calls: active means survival T/C of 150% or more; inactive means T/C below 125% in these data.
System: CD2F1 mice, L1210 leukemia ip, survival T/C
Test: NCI In Vivo Anticancer Drug Screen. Data for tumor model L1210 Leukemia (intraperitoneal) in CD2F1 (CDF1) mice
Settings: higher = longer survival
Procedure, shortened: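 Transplantable tumor in mice; compound-treated vs vehicle-treated groups. Read-out = treated/control ratio of the measured endpoint.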

[1] = endpoint: mean survival time, dose: 100.0 mg/kg/injection, schedule: Q01DX001 (ip), vehicle: saline with Tween-80
[2] = endpoint: mean survival time, dose: 200.0 mg/kg/injection, schedule: Q01DX001 (ip), vehicle: saline with Tween-80
[3] = endpoint: mean survival time, dose: 400.0 mg/kg/injection, schedule: Q01DX001 (ip), vehicle: saline with Tween-80
[4] = endpoint: mean survival time, dose: 100.0 mg/kg/injection, schedule: Q04DX003 (ip), vehicle: saline with Tween-80
[5] = endpoint: mean survival time, dose: 100.0 mg/kg/injection, schedule: Q01DX009 (ip), vehicle: saline with Tween-80
[6] = endpoint: mean survival time, dose: 200.0 mg/kg/injection, schedule: Q01DX009 (ip), vehicle: saline with Tween-80
[7] = endpoint: mean survival time, dose: 25.0 mg/kg/injection, schedule: Q01DX009 (ip), vehicle: saline with Tween-80
[8] = endpoint: mean survival time, dose: 50.0 mg/kg/injection, schedule: Q01DX009 (ip), vehicle: saline with Tween-80
[9] = endpoint: mean survival time, dose: 200.0 mg/kg/injection, schedule: Q04DX003 (ip), vehicle: saline with Tween-80
[10] = endpoint: mean survival time, dose: 400.0 mg/kg/injection, schedule: Q04DX003 (ip), vehicle: saline with Tween-80
[11] = endpoint: mean survival time, dose: 100.0 mg/kg/injection, schedule: Q01DX001 (ip), vehicle: saline
[12] = endpoint: mean survival time, dose: 200.0 mg/kg/injection, schedule: Q01DX001 (ip), vehicle: saline
[13] = endpoint: mean survival time, dose: 400.0 mg/kg/injection, schedule: Q01DX001 (ip), vehicle: saline
[14] = endpoint: mean survival time, dose: 100.0 mg/kg/injection, schedule: Q04DX002 (ip), vehicle: saline with Tween-80
[15] = endpoint: mean survival time, dose: 200.0 mg/kg/injection, schedule: Q04DX002 (ip), vehicle: saline with Tween-80
[16] = endpoint: mean survival time, dose: 400.0 mg/kg/injection, schedule: Q04DX002 (ip), vehicle: saline with Tween-80
[17] = endpoint: mean survival time, dose: 75.0 mg/kg/injection, schedule: Q01DX001 (ip), vehicle: saline
[18] = endpoint: mean survival time, dose: 150.0 mg/kg/injection, schedule: Q01DX001 (ip), vehicle: saline
[19] = endpoint: mean survival time, dose: 300.0 mg/kg/injection, schedule: Q01DX001 (ip), vehicle: saline

Measured: T/C

C#CC(C)OCCO (stereo unspecified)
inactive: endpoint: mean survival time, dose: 100.0 mg/kg/injection, schedule: Q04DX003 (ip), vehicle: acetone 104 % of control | endpoint: mean survival time, dose: 200.0 mg/kg/injection, schedule: Q04DX003 (ip), vehicle: acetone 98 % of control | endpoint: mean survival time, dose: 400.0 mg/kg/injection, schedule: Q04DX003 (ip), vehicle: acetone 120 % of control

Nc1nc(-c2cccc([N+](=O)[O-])c2)c(N=Nc2ccc(Br)cc2)s1
inactive: [1] 96 % of control | [2] 87 % of control | [3] 90 % of control

NC(=O)NN=C1CCC(CC2CCCCC2)CC1 (stereo unspecified)
inactive: [4] 112 % of control

C=CC(C)n1c(=O)c2c(ncn2C)n(C)c1=O (stereo unspecified)
inactive: endpoint: mean survival time, dose: 0.78 mg/kg/injection, schedule: Q04DX003 (ip), vehicle: saline with Tween-80 102 % of control | endpoint: mean survival time, dose: 1.56 mg/kg/injection, schedule: Q04DX003 (ip), vehicle: saline with Tween-80 102 % of control | endpoint: mean survival time, dose: 3.12 mg/kg/injection, schedule: Q04DX003 (ip), vehicle: saline with Tween-80 105 % of control

O=C(CNC(=O)c1ccccc1)N/N=C/c1ccccc1O
inactive: [5] 94 % of control | [6] 95 % of control | endpoint: mean survival time, dose: 400.0 mg/kg/injection, schedule: Q01DX009 (ip), vehicle: saline with Tween-80 89 % of control

NP(=O)(OCCCOCc1ccccc1)N(CCCl)CCCl (stereo unspecified)
inactive: endpoint: mean survival time, dose: 12.5 mg/kg/injection, schedule: Q01DX005 (ip), vehicle: water 95 % of control | endpoint: mean survival time, dose: 25.0 mg/kg/injection, schedule: Q01DX005 (ip), vehicle: water 94 % of control | endpoint: mean survival time, dose: 50.0 mg/kg/injection, schedule: Q01DX005 (ip), vehicle: water 100 % of control | endpoint: mean survival time, dose: 100.0 mg/kg/injection, schedule: Q01DX005 (ip), vehicle: water 100 % of control | endpoint: mean survival time, dose: 200.0 mg/kg/injection, schedule: Q01DX005 (ip), vehicle: water 101 % of control

O=C(CCl)N1CCC2(CC1)SSC1(CCN(C(=O)CCl)CC1)S2
inactive: endpoint: mean survival time, dose: 12.5 mg/kg/injection, schedule: Q01DX009 (ip), vehicle: saline with Tween-80 94 % of control | [7] 93 % of control | endpoint: mean survival time, dose: 25.0 mg/kg/injection, schedule: Q04DX003 (ip), vehicle: saline with Tween-80 89 % of control | [8] 97 % of control | endpoint: mean survival time, dose: 50.0 mg/kg/injection, schedule: Q04DX003 (ip), vehicle: saline with Tween-80 100 % of control | [4] 93 % of control

COc1ccc(CC2=NCCN2)cc1
inactive: [7] 98 % of control | [8] 98 % of control | [5] 98 % of control

BrCCOc1ccccc1
inactive: endpoint: mean survival time, dose: 100.0 mg/kg/injection, schedule: Q04DX003 (ip), vehicle: other 108 % of control | endpoint: mean survival time, dose: 200.0 mg/kg/injection, schedule: Q04DX003 (ip), vehicle: other 97 % of control | endpoint: mean survival time, dose: 400.0 mg/kg/injection, schedule: Q04DX003 (ip), vehicle: other 86 % of control

COc1c(C)ccc2c1CCN1C3=C(CCC21)CC1(CC3)OCCO1 (stereo unspecified)
inactive: [5] 95 % of control | [4] 92 % of control | [6] 89 % of control | [9] 94 % of control | [10] 94 % of control

O=C(NCCCN1CCOCC1)c1ccc(C(=O)NCCCN2CCOCC2)cc1
inactive: [11] 95 % of control | [12] 98 % of control | [13] 101 % of control

COC(=O)c1c(C)c(-c2ccccc2)c(-c2ccccc2)c(C)c1C(=O)OC
inactive: [14] 98 % of control | [15] 95 % of control | [16] 95 % of control

Cn1ccc(CON)n1
inactive: endpoint: mean survival time, dose: 100.0 mg/kg/injection, schedule: Q01DX009 (ip), vehicle: saline 94 % of control | endpoint: mean survival time, dose: 200.0 mg/kg/injection, schedule: Q01DX009 (ip), vehicle: saline 93 % of control

COc1ccc(C=C(C(=O)CCN(C)C)C(=O)CCN(C)C)cc1
inactive: endpoint: median survival time, dose: 25.0 mg/kg/injection, schedule: Q01DX005 (ip), vehicle: saline 100 % of control | endpoint: median survival time, dose: 50.0 mg/kg/injection, schedule: Q01DX005 (ip), vehicle: saline 100 % of control | endpoint: median survival time, dose: 100.0 mg/kg/injection, schedule: Q01DX005 (ip), vehicle: saline 100 % of control | endpoint: median survival time, dose: 200.0 mg/kg/injection, schedule: Q01DX005 (ip), vehicle: saline 102 % of control

FC1(F)C(I)=C(I)C1(F)F
inactive: [17] 97 % of control | [18] 103 % of control | [19] 105 % of control

CCOC(=O)/C(C#N)=N/Nc1cccc(Cl)c1Cl
inactive: [14] 96 % of control | [15] 96 % of control | [16] 100 % of control

O=C(Nc1ccc(S(=O)(=O)F)cc1)c1ccc([N+](=O)[O-])cc1
inactive: [11] 105 % of control | [12] 100 % of control | [13] 100 % of control

CCCCCC/C(C)=C(/C#N)C(=O)OC
inactive: [17] 94 % of control | [18] 97 % of control | [19] 96 % of control

Clc1ccc(C[n+]2ccccc2)cc1Cl
inactive: endpoint: mean survival time, dose: 5.0 mg/kg/injection, schedule: Q01DX009 (ip), vehicle: saline 98 % of control | endpoint: mean survival time, dose: 10.0 mg/kg/injection, schedule: Q01DX009 (ip), vehicle: saline 104 % of control | endpoint: mean survival time, dose: 10.0 mg/kg/injection, schedule: Q04DX003 (ip), vehicle: saline 100 % of control | endpoint: mean survival time, dose: 20.0 mg/kg/injection, schedule: Q01DX009 (ip), vehicle: saline 98 % of control | endpoint: mean survival time, dose: 20.0 mg/kg/injection, schedule: Q04DX003 (ip), vehicle: saline 94 % of control

Cc1cc(C)c(C(C)(C)O)c(C)c1
inactive: [9] 98 % of control | [10] 106 % of control

C[P+](c1ccc(Cl)cc1)(c1ccc(Cl)cc1)c1ccc(Cl)cc1
inactive: endpoint: mean survival time, dose: 6.25 mg/kg/injection, schedule: Q01DX009 (ip), vehicle: saline 119 % of control | endpoint: mean survival time, dose: 12.5 mg/kg/injection, schedule: Q01DX009 (ip), vehicle: saline 107 % of control | endpoint: mean survival time, dose: 25.0 mg/kg/injection, schedule: Q01DX009 (ip), vehicle: saline 109 % of control

CC(=O)NC(C)NC(C)=O
inactive: [11] 103 % of control | [12] 103 % of control | [13] 103 % of control

Cc1cc(=O)[nH]c2ccccc12
inactive: [8] 96 % of control | [11] 98 % of control | [5] 96 % of control | [12] 98 % of control | [6] 103 % of control | [13] 102 % of control

Nc1ncnc2c1c1c(=S)[nH]c(=S)[nH]c1n2C1OC(CO)C(O)C1O (stereo unspecified)
inactive: endpoint: mean survival time, dose: 12.5 mg/kg/injection, schedule: Q01DX005 (ip), vehicle: distilled water + Tween-80 104 % of control | endpoint: mean survival time, dose: 25.0 mg/kg/injection, schedule: Q01DX005 (ip), vehicle: distilled water + Tween-80 105 % of control | endpoint: mean survival time, dose: 50.0 mg/kg/injection, schedule: Q01DX005 (ip), vehicle: distilled water + Tween-80 107 % of control | endpoint: mean survival time, dose: 100.0 mg/kg/injection, schedule: Q01DX005 (ip), vehicle: distilled water + Tween-80 104 % of control | endpoint: mean survival time, dose: 200.0 mg/kg/injection, schedule: Q01DX005 (ip), vehicle: distilled water + Tween-80 102 % of control

O=C1OC2(c3cc(I)c(O)c(I)c3Oc3c2cc(I)c(O)c3I)c2c(Cl)ccc(Cl)c21
inactive: [1] 103 % of control | [2] 87 % of control | [3] 100 % of control
